Measured values as given in PMC10879502, “Linking ATP and allosteric sites to achieve superadditive binding with bivalent EGFR kinase inhibitors” (Communications Chemistry, 2024).

Experiments:
[1] = tested on: H1975 cells (L858R/T790M); assay: MTT antiproliferative activity assay; assay type: cell-based, human
Procedure: Cells were dosed with inhibitors to a final DMSO 0.5% in triplicate for 37 °C for 72 h. Cellular inhibition of growth was assessed by MTT viability assay according to the manufactures protocol (OZ Biosciences). […] Ba/F3 cells were all cultured in RPMI1640 media with 10% fetal bovine serum and 1% penicillin and streptomycin. The Ba/F3 cell lines were tested negative for Mycoplasma using Mycoplasma Plus PCR Primer Set (Agilent) and were passaged and/or used for no longer than 4 weeks for all experiments. Assay reagents were purchased from MilliporeSigma (Cat# R7017-5G). Ba/F3 cells were plated and treated with increasing concentrations of inhibitors in triplicate for 72 h. Compounds were dispensed using the Tecan D300e Digital Dispenser. […] All experiments were repeated at least 3 times and values were reported as an average with standard deviation.

[2] = molecular target: T1, ABL1(E255K)-phosphorylated (Homo sapiens, UniProt P00519, E255K); assay: KINOMEscan; assay type: binding; conditions: 1 μM
T1 construct: purchased Eurofins DiscoverX Corporation

[3] = molecular target: T2, ABL1(H396P)-phosphorylated (Homo sapiens, UniProt P00519, H396P); assay: KINOMEscan; assay type: binding; conditions: 1 μM
T2 construct: purchased Eurofins DiscoverX Corporation

BRK = molecular target: T3, BRK (Homo sapiens, UniProt Q13882); assay: KINOMEscan; assay type: binding; conditions: 1 μM
T3 construct: purchased Eurofins DiscoverX Corporation (KINOMEscan)

BRSK2 = molecular target: T4, BRSK2 (Homo sapiens, UniProt Q8IWQ3); assay: KINOMEscan; assay type: binding; conditions: 1 μM
T4 construct: purchased Eurofins DiscoverX Corporation (KINOMEscan)

CAMK1G = molecular target: T5, CAMK1G (Homo sapiens, UniProt Q96NX5); assay: KINOMEscan; assay type: binding; conditions: 1 μM
T5 construct: purchased Eurofins DiscoverX Corporation (KINOMEscan)

CHEK2 = CHEK2 (Homo sapiens, UniProt O96017); assay: KINOMEscan; assay type: binding; conditions: 1 μM
CLK3 = CLK3 (Homo sapiens, UniProt P49761); assay: KINOMEscan; assay type: binding; conditions: 1 μM
CSNK1A1 = CSNK1A1 (Homo sapiens, UniProt P48729); assay: KINOMEscan; assay type: binding; conditions: 1 μM
EGFR(E746-A750del) = EGFR(E746-A750del) (Homo sapiens, UniProt P00533, DEL746-750); assay: KINOMEscan; assay type: binding; conditions: 1 μM
FLT3(N841I) = molecular target: T6, FLT3(N841I) (Homo sapiens, UniProt P36888, N841I); assay: KINOMEscan; assay type: binding; conditions: 1 μM
T6 construct: purchased Eurofins DiscoverX Corporation

GRK2 = molecular target: T7, GRK2 (Homo sapiens, UniProt P25098); assay: KINOMEscan; assay type: binding; conditions: 1 μM
T7 construct: purchased Eurofins DiscoverX Corporation

[4] = molecular target: T8, JAK1(JH1domain-catalytic) (Homo sapiens, UniProt P23458); assay: KINOMEscan; assay type: binding; conditions: 1 μM
T8 construct: JAK1(JH1domain-catalytic); purchased Eurofins DiscoverX (KINOMEscan)

JNK2 = molecular target: T9, JNK2 (Homo sapiens, UniProt P45984); assay: KINOMEscan; assay type: binding; conditions: 1 μM
T9 construct: purchased Eurofins DiscoverX (KINOMEscan)

LIMK1 = molecular target: T10, LIMK1 (Homo sapiens, UniProt P53667); assay: KINOMEscan; assay type: binding; conditions: 1 μM
T10 construct: purchased Eurofins DiscoverX Corporation

LTK = molecular target: T11, LTK (Homo sapiens, UniProt P29376); assay: KINOMEscan; assay type: binding; conditions: 1 μM
T11 construct: purchased Eurofins DiscoverX Corporation

MARK2 = molecular target: T12, MARK2 (Homo sapiens, UniProt Q7KZI7); assay: KINOMEscan; assay type: binding; conditions: 1 μM
T12 construct: purchased Eurofins DiscoverX Corporation

MEK2 = molecular target: T13, MEK2 (Homo sapiens, UniProt P36507); assay: KINOMEscan; assay type: binding; conditions: 1 μM
T13 construct: purchased Eurofins DiscoverX Corporation

MST4 = molecular target: T14, MST4 (Homo sapiens, UniProt Q9P289); assay: KINOMEscan; assay type: binding; conditions: 1 μM
T14 construct: purchased Eurofins DiscoverX Corporation

NDR1 = molecular target: T15, NDR1 (Homo sapiens, UniProt Q15208); assay: KINOMEscan; assay type: binding; conditions: 1 μM
T15 construct: purchased Eurofins DiscoverX Corporation

NEK1 = molecular target: T16, NEK1 (Homo sapiens, UniProt Q96PY6); assay: KINOMEscan; assay type: binding; conditions: 1 μM
T16 construct: purchased Eurofins DiscoverX Corporation

NIK = NIK (Homo sapiens, UniProt Q99558); assay: KINOMEscan; assay type: binding; conditions: 1 μM
PAK4 = PAK4 (Homo sapiens, UniProt O96013); assay: KINOMEscan; assay type: binding; conditions: 1 μM
PDGFRA = PDGFRA (Homo sapiens, UniProt P16234); assay: KINOMEscan; assay type: binding; conditions: 1 μM
PRKD2 = PRKD2 (Homo sapiens, UniProt Q9BZL6); assay: KINOMEscan; assay type: binding; conditions: 1 μM
RET(V804L) = RET(V804L) (Homo sapiens, UniProt P07949, V804L); assay: KINOMEscan; assay type: binding; conditions: 1 μM
RIOK3 = RIOK3 (Homo sapiens, UniProt O14730); assay: KINOMEscan; assay type: binding; conditions: 1 μM
STK16 = STK16 (Homo sapiens, UniProt O75716); assay: KINOMEscan; assay type: binding; conditions: 1 μM
STK33 = STK33 (Homo sapiens, UniProt Q9BYT3); assay: KINOMEscan; assay type: binding; conditions: 1 μM
STK36 = STK36 (Homo sapiens, UniProt Q9NRP7); assay: KINOMEscan; assay type: binding; conditions: 1 μM
TAOK3 = molecular target: T17, TAOK3 (Homo sapiens, UniProt Q9H2K8); assay: KINOMEscan; assay type: binding; conditions: 1 μM
T17 construct: purchased Eurofins DiscoverX Corporation

TBK1 = molecular target: T18, TBK1 (Homo sapiens, UniProt Q9UHD2); assay: KINOMEscan; assay type: binding; conditions: 1 μM
T18 construct: purchased Eurofins DiscoverX Corporation

TSSK1B = molecular target: T19, TSSK1B (Homo sapiens, UniProt Q9BXA7); assay: KINOMEscan; assay type: binding; conditions: 1 μM
T19 construct: purchased Eurofins DiscoverX Corporation

ULK3 = ULK3 (Homo sapiens, UniProt Q6PHR2); assay: KINOMEscan; assay type: binding; conditions: 1 μM
WNK1 = WNK1 (Homo sapiens, UniProt Q9H4A3); assay: KINOMEscan; assay type: binding; conditions: 1 μM
WNK3 = WNK3 (Homo sapiens, UniProt Q9BYP7); assay: KINOMEscan; assay type: binding; conditions: 1 μM
ZAP70 = ZAP70 (Homo sapiens, UniProt P43403); assay: KINOMEscan; assay type: binding; conditions: 1 μM

Chain of PAK4 (O96013 whole entry): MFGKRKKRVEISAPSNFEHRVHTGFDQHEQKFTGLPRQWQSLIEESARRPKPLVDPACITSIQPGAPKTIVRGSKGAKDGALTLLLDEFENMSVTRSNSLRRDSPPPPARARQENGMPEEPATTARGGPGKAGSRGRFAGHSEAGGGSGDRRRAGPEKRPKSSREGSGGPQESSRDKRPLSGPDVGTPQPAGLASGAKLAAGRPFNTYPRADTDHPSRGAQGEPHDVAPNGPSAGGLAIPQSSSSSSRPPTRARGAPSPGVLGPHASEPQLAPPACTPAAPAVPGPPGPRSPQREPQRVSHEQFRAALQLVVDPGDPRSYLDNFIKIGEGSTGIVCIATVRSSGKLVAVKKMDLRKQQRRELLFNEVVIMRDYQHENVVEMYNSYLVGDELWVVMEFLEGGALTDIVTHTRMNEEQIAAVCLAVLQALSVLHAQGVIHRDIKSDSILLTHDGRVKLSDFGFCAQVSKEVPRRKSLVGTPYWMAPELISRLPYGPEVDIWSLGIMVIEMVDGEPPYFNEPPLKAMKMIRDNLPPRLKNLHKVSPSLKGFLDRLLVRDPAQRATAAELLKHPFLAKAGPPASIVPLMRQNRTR
T14 sequence (Q9P289 whole entry): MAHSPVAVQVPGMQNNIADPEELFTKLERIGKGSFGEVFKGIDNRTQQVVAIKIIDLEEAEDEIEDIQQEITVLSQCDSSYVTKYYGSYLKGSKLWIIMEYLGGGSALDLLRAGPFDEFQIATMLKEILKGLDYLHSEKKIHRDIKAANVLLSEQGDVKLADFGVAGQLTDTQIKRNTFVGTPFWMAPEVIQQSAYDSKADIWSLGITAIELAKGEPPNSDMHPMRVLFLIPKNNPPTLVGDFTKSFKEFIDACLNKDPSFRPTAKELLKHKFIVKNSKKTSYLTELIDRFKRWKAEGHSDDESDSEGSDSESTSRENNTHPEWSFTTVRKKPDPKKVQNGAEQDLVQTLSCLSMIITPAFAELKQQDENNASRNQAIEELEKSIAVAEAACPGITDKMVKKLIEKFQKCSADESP
Chain of PDGFRA (P16234 24-1089): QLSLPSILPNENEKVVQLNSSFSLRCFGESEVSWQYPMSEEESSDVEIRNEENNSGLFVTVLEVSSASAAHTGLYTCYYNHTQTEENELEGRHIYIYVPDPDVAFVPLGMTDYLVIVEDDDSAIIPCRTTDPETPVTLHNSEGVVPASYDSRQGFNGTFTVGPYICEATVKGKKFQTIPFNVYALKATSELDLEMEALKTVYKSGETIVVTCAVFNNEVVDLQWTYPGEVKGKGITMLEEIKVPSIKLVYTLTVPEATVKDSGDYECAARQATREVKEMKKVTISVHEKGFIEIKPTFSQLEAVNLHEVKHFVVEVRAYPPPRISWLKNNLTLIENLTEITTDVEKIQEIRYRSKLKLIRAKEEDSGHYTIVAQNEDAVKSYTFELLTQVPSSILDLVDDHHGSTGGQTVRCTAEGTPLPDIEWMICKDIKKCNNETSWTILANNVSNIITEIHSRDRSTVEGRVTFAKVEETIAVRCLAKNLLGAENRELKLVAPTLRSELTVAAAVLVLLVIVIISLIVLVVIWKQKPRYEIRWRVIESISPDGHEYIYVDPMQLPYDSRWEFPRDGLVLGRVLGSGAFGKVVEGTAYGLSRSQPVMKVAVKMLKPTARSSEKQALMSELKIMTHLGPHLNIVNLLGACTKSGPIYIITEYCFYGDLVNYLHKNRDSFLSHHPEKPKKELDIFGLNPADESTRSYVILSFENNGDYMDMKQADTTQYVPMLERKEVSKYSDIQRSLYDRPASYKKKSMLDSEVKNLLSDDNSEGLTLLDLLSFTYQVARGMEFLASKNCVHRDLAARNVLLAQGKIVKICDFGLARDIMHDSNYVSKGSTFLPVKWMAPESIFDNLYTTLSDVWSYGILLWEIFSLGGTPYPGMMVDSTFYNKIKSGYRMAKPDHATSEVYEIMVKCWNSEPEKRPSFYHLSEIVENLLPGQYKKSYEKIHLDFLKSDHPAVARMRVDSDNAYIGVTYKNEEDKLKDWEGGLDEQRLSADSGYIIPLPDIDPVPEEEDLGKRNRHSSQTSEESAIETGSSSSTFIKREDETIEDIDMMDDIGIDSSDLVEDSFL
Chain of WNK1 (Q9H4A3 whole entry): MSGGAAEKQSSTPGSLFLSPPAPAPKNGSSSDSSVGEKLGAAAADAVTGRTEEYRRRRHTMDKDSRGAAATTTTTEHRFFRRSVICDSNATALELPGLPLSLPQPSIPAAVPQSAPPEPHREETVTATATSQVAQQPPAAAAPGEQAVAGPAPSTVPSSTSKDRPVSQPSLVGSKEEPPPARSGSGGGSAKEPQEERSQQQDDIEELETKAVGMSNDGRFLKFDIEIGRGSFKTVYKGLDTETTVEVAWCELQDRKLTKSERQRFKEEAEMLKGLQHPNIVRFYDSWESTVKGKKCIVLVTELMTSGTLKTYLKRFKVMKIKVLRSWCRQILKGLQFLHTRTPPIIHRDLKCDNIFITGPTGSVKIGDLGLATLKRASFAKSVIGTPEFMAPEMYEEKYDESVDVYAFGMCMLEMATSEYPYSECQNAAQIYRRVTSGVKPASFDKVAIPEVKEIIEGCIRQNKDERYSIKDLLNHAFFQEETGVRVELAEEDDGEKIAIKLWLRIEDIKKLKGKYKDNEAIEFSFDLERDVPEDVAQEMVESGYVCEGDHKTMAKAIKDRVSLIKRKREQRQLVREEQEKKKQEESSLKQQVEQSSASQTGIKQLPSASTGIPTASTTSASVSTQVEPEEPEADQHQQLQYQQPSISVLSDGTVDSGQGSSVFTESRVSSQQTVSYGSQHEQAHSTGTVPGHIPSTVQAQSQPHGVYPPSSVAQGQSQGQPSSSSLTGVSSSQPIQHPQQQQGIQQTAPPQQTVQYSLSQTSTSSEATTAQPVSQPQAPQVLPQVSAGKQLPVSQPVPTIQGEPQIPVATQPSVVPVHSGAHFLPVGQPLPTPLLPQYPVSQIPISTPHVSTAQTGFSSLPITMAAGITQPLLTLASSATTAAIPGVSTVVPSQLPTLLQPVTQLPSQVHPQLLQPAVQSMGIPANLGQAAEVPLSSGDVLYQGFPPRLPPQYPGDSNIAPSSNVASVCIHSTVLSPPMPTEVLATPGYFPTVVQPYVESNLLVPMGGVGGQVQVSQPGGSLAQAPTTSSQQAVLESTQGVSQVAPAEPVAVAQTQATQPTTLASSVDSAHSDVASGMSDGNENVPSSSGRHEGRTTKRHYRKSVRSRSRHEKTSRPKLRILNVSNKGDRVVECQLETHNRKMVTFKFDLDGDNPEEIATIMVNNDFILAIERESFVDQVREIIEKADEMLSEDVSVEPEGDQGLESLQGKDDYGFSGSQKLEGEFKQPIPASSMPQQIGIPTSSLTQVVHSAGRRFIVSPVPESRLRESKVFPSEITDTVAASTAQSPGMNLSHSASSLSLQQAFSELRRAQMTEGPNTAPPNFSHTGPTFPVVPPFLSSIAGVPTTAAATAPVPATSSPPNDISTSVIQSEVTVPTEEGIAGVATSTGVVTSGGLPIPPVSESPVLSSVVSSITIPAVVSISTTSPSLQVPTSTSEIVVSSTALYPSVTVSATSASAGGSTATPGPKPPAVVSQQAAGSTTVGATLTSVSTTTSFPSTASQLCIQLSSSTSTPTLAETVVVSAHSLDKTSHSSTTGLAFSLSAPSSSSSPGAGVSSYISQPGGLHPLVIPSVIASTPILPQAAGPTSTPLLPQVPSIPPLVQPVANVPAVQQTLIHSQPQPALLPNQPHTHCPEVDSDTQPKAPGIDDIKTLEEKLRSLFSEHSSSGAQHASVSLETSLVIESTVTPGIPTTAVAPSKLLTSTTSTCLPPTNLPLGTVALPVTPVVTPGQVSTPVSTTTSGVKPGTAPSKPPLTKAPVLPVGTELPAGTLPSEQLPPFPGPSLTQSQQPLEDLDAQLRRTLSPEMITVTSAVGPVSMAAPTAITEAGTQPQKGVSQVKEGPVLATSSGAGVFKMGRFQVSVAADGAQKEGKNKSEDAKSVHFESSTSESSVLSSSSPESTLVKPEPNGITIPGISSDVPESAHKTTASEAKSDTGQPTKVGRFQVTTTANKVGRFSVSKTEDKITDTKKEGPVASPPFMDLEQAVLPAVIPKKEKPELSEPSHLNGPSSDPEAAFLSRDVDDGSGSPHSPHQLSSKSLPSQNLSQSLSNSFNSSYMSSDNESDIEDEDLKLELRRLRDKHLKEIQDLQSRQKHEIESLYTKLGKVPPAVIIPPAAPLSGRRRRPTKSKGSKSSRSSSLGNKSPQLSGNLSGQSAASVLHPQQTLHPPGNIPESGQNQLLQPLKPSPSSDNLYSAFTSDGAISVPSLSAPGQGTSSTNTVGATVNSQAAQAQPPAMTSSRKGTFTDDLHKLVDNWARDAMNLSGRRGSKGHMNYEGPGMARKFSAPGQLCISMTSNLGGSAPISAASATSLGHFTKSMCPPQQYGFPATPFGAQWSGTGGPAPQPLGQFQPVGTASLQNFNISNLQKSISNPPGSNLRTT
Chain of CLK3 (P49761 whole entry): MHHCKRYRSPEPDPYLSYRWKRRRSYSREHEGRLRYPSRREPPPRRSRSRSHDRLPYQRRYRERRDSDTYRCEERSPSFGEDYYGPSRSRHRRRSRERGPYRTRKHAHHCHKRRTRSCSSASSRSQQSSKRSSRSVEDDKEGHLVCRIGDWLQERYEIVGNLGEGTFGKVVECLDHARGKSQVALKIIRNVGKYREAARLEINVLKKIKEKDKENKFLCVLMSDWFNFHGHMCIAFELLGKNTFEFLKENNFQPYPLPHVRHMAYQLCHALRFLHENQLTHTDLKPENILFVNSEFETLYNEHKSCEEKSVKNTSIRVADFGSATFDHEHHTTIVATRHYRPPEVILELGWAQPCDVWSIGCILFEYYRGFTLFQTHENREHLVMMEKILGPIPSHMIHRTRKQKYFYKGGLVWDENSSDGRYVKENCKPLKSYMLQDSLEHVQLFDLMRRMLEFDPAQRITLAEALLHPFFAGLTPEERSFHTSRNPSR

## C=CC(=O)Nc1ccc(OC)c(Nc2cc(-c3[nH]c(CC)nc3-c3cccc(NC(=O)c4cccc5c4NC(=O)c4ccccc4N5)c3)ccn2)c1 [Compound 4]
[1]; H1975
  less potent than AZD9291: ~ 60 fold
[1]; H1975, text
  antiproliferative active concentration: 100 to 500 nM
[2]
  POC: 65% of control
[3]
  POC: 74% of control
BRK
  POC: 96% of control
BRSK2
  POC: 93% of control
CAMK1G
  POC: 100% of control
CHEK2
  POC: 87% of control
CLK3
  POC: 74% of control
CSNK1A1
  POC: 56% of control
EGFR(E746-A750del)
  POC: 13% of control
FLT3(N841I)
  POC: 97% of control
GRK2
  POC: 100% of control
[4]
  POC: 91% of control
JNK2
  POC: 78% of control
LIMK1
  POC: 79% of control
LTK
  POC: 48% of control
MARK2
  POC: 85% of control
MEK2
  POC: 100% of control
MST4
  POC: 94% of control
NDR1
  POC: 73% of control
NEK1
  POC: 90% of control
NIK
  POC: 100% of control
PAK4
  POC: 89% of control
PDGFRA
  POC: 69% of control
PRKD2
  POC: 62% of control
RET(V804L)
  POC: 99% of control
RIOK3
  POC: 100% of control
STK16
  POC: 100% of control
STK33
  POC: 100% of control
STK36
  POC: 30% of control
TAOK3
  POC: 95% of control
TBK1
  POC: 95% of control
TSSK1B
  POC: 95% of control
ULK3
  POC: 100% of control
WNK1
  POC: 100% of control
WNK3
  POC: 78% of control
ZAP70
  POC: 97% of control
